Measured values as given in patent US9290476B2, “Methylene linked quinolinyl modulators of RORγt” (Janssen Pharmaceutica NV, priority 2012, dated 2016).
Like-named read-outs stand apart in the source and are kept apart here.

Key:
human RORγt LBD = human RORγt LBD (Homo sapiens (Human), UniProt P51449); experiment: RORγt reporter assay (GAL4-RORγt LBD luciferase in HEK293T cells); assay type: cell-based; conditions: for IC50 / RORγt reporter Assay, % inhibition @ 6 μM: HEK293T cells; for IC50: 24 hours compound treatment; for inhibition at 6 µM: HEK-293T, read-out: RORγt reporter Assay, % inhibition @ 6 μM, HEK293T cells, 6 μM
Sequence of human RORγt LBD (P51449 258-518): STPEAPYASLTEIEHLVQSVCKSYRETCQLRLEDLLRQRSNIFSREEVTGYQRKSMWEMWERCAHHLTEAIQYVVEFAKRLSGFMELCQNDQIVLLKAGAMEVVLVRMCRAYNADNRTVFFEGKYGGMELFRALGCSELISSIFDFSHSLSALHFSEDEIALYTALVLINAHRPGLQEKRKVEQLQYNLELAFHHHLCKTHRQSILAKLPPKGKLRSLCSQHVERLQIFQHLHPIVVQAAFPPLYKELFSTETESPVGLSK
In short: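 HEK293T cells transiently co-transfected with GAL4-DBD–wild-type human RORγt LBD (pBIND) and GAL4-responsive firefly luciferase reporter (pGL4.31); renilla luciferase from pBIND normalises transfection/viability. Cells in phenol-red-free DMEM, 5% lipid-reduced FCS, treated with compound 24 h. Firefly/renilla ratio plotted against compound concentration.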

[1] = tested on: IL-17 production by CD4 T cells; experiment: Human Th17 assay (IL-17 production by CD4 T cells under Th17 differentiation); assay type: cell-based; conditions: human CD4+ T cells, IL-17 after 3 days, read-out: Human Th17 Assay, IC50 μM
From the text: The human Th17 assay tests the effect of RORγt modulatory compounds on IL-17 production by CD4 T cells under conditions which favor Th17 differentiation.
Total CD4^+ T cells were isolated from the peripheral blood mononuclear cells (PBMC) of healthy donors using a CD4^+ T cell isolation kit II, following the manufacturer's instructions (Miltenyi Biotec). Cells were resuspended in a medium of RPMI-1640 supplemented with 10% fetal bovine serum, penicillin, streptomycin, glutamate, and β-mercaptoethanol and were added to 96-well plates at 1.5×10^5 per 100 μL per well. 50 μL of compound at titrated concentrations in DMSO were added into each well at final DMSO concentration at 0.2%. Cells were incubated for 1 hour, then 50 μL of Th17 cell differentiation medium was added to each well. The final concentrations of antibodies and cytokines (R&D Systems) in differentiation medium were: 3×10^6/mL anti-CD3/CD28 beads (prepared using human T cell activation/expansion kit, Miltenyi Biotec), 10 μg/mL anti-IL4, 10 μg/mL anti-IFNγ, 10 ng/mL IL1β, 10 ng/mL IL23, 50 ng/mL IL6, 3 ng/mL TGFβ and 20 U/mL IL2. Cells were cultured at 37° C. and 5% CO2 for 3 days. Supernatants were collected and the accumulated IL-17 in culture was measured by using MULTI-SPOT® Cytokine Plate following manufacture's instruction (Meso Scale Discovery). The plate was read using Sector Imager 6000, and IL-17 concentration was extrapolated from the standard curve. The IC50s were determined by GraphPad.

[2] = molecular target: human RORγt ligand binding domain (RORγt LBD) (Homo sapiens (Human), UniProt P51449); experiment: RORγt ThermoFluor assay (thermal shift binding affinity); conditions: estimated from thermal shift
Sequence of human RORγt ligand binding domain (RORγt LBD) (P51449 other isoform, or with tags, fused parts or gaps): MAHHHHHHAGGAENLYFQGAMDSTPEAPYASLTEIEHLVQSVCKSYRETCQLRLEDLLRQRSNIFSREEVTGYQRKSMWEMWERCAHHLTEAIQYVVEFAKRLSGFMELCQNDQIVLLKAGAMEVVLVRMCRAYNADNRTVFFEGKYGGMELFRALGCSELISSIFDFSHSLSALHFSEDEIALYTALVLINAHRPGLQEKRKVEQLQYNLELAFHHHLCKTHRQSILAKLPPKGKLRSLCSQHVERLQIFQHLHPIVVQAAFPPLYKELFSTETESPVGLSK
In short: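 Thermal shift used 0.065 mg/mL RORγt LBD with 60 μM 1,8-ANS in 100 mM Hepes pH 7.0, 10 mM NaCl, 2.5 mM GSH and 0.002% Tween-20, heated at 1 °C/min. Fluorescence was excited at 380–400 nm and emission read at 500 nm.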

Compound	IC50 (human RORγt LBD) [µM]	inhibition at 6 µM (human RORγt LBD) [%]	IC50 ([1]; Homo sapiens, CD4+ T, 72 h) [µM]	Kd [2] [µM]	RORγt reporter Assay, % inhibition @ 6 μM (human RORγt LBD) [%]	IC50 [1] [µM]
COc1nc2ccc(C(O)(c3ccc(C(F)(F)F)nc3)c3cncn3C)cc2c(Cl)c1Cc1cc2ccccc2s1 (single isomer, unassigned) [Example 37B, (3-(benzo[b]thiophen-2-ylmethyl)-4-chloro-2-methoxyquinolin-6-yl)(1-methyl-1H-imidazol-5-yl)(6-(trifluoromethyl)pyridin-3-yl)methanol]	0.16	99	0.11	0.044		
COc1nc2ccc(C(O)(c3ccc(C(F)(F)F)nc3)c3cncn3C)cc2c(Cl)c1Cc1cc2ccccc2s1 (single isomer, unassigned) [Example 37C, (3-(benzo[b]thiophen-2-ylmethyl)-4-chloro-2-methoxyquinolin-6-yl)(1-methyl-1H-imidazol-5-yl)(6-(trifluoromethyl)pyridin-3-yl)methanol]	0.11			0.0035	102	0.15
COc1nc2ccc(C(O)(c3ccc(F)cc3)c3cncn3C)cc2c(Cl)c1Cc1ccc(S(C)(=O)=O)cc1 (single isomer, unassigned) [Example 54C, (4-chloro-2-methoxy-3-(4-(methylsulfonyl)benzyl)quinolin-6-yl)(4-fluorophenyl)(1-methyl-1H-imidazol-5-yl)methanol]	0.098		0.057	0.023	93	
Cc1cc(C(O)(c2ccc(C(F)(F)F)nc2)c2cncn2C)cc2c(C#N)c(Cc3ccc(-n4cccn4)cc3)c(C#N)nc12 (single isomer, unassigned) [Example 65B, 3-(4-(1H-pyrazol-1-yl)benzyl)-6-(hydroxy(1-methyl-1H-imidazol-5-yl)(6-(trifluoromethyl)pyridin-3-yl)methyl)-8-methylquinoline-2,4-dicarbonitrile]	0.13	101		0.14		0.22
Cc1cc(C(O)(c2ccc(C(F)(F)F)nc2)c2cncn2C)cc2c(C#N)c(Cc3ccc(-n4cccn4)cc3)c(C#N)nc12 (single isomer, unassigned) [Example 65C, 3-(4-(1H-pyrazol-1-yl)benzyl)-6-(hydroxy(1-methyl-1H-imidazol-5-yl)(6-(trifluoromethyl)pyridin-3-yl)methyl)-8-methylquinoline-2,4-dicarbonitrile]	0.046			0.0042	100	0.045
Cc1cc(C(O)(c2ccc(C#N)cc2)c2cncn2C)cc2c(C#N)c(Cc3ccc(-n4cccn4)cc3)c(C#N)nc12 (single isomer, unassigned) [Example 66B, 3-(4-(1H-pyrazol-1-yl)benzyl)-6-((4-cyanophenyl)(hydroxy)(1-methyl-1H-imidazol-5-yl)methyl)-8-methylquinoline-2,4-dicarbonitrile]	0.42	95		0.27		1.1
Cc1cc(C(O)(c2ccc(C#N)cc2)c2cncn2C)cc2c(C#N)c(Cc3ccc(-n4cccn4)cc3)c(C#N)nc12 (single isomer, unassigned) [Example 66C, 3-(4-(1H-pyrazol-1-yl)benzyl)-6-((4-cyanophenyl)(hydroxy)(1-methyl-1H-imidazol-5-yl)methyl)-8-methylquinoline-2,4-dicarbonitrile]	0.029			0.0079	101	0.04
COc1nc2ccc(C(O)(c3ccc(C(F)(F)F)nc3)c3cncn3C)cc2c(C#N)c1Cc1ccc(-n2cccn2)cc1 (single isomer, unassigned) [Example 73B, 3-(4-(1H-Pyrazol-1-yl)benzyl)-6-(hydroxy(1-methyl-1H-imidazol-5-yl)(6-(trifluoromethyl)pyridin-3-yl)methyl)-2-methoxyquinoline-4-carbonitrile]	0.046	97		0.0045		0.02

Continued, values first:

IC50 (human RORγt LBD) [µM]	inhibition at 6 µM (human RORγt LBD) [%]	IC50 ([1]; Homo sapiens, CD4+ T, 72 h) [µM]	Kd [2] [µM]	RORγt reporter Assay, % inhibition @ 6 μM (human RORγt LBD) [%]	IC50 [1] [µM]	Compound
0.055	103	0.1	0.014			COc1nc2c(F)cc(C(O)(c3ccc(C(F)(F)F)nc3)c3cncn3C)cc2c(Cl)c1Cc1ccc(-n2cccn2)cc1 (single isomer, unassigned) [Example 58B, (3-(4-(1H-pyrazol-1-yl)benzyl)-4-chloro-8-fluoro-2-methoxyquinolin-6-yl)(1-methyl-1H-imidazol-5-yl)(6-(trifluoromethyl)pyridin-3-yl)methanol]
0.14	106	0.098	0.0044			COc1nc2c(OC)cc(C(O)(c3ccc(C(F)(F)F)nc3)c3cncn3C)cc2c(Cl)c1Cc1ccc(-n2cccn2)cc1 (single isomer, unassigned) [Example 59B, (3-(4-(1H-pyrazol-1-yl)benzyl)-4-chloro-2,8-dimethoxyquinolin-6-yl)(1-methyl-1H-imidazol-5-yl)(6-(trifluoromethyl)pyridin-3-yl)methanol]
0.035	101		0.0063		0.01	CON(C)c1nc2ccc(C(O)(c3ccc(C(F)(F)F)nc3)c3cncn3C)cc2c(Cl)c1Cc1ccc(-n2cccn2)cc1 (single isomer, unassigned) [Example 67B, (3-(4-(1H-pyrazol-1-yl)benzyl)-4-chloro-2-(methoxy(methyl)amino)quinolin-6-yl)(1-methyl-1H-imidazol-5-yl)(6-(trifluoromethyl)pyridin-3-yl)methanol]
0.12			0.057	101	0.1	CON(C)c1nc2ccc(C(O)(c3ccc(C(F)(F)F)nc3)c3cncn3C)cc2c(Cl)c1Cc1ccc(-n2cccn2)cc1 (single isomer, unassigned) [Example 67C, (3-(4-(1H-pyrazol-1-yl)benzyl)-4-chloro-2-(methoxy(methyl)amino)quinolin-6-yl)(1-methyl-1H-imidazol-5-yl)(6-(trifluoromethyl)pyridin-3-yl)methanol]
~0.05	96		0.0021		0.01	Cn1cncc1C(O)(c1ccc(C(F)(F)F)nc1)c1ccc2nc(N3CCC3)c(Cc3ccc(-n4cccn4)cc3)c(Cl)c2c1 (single isomer, unassigned) [Example 68B, (3-(4-(1H-pyrazol-1-yl)benzyl)-2-(azetidin-1-yl)-4-chloroquinolin-6-yl)(1-methyl-1H-imidazol-5-yl)(6-(trifluoromethyl)pyridin-3-yl)methanol]
0.21			0.03	100	0.2	Cn1cncc1C(O)(c1ccc(C(F)(F)F)nc1)c1ccc2nc(N3CCC3)c(Cc3ccc(-n4cccn4)cc3)c(Cl)c2c1 (single isomer, unassigned) [Example 68C, (3-(4-(1H-pyrazol-1-yl)benzyl)-2-(azetidin-1-yl)-4-chloroquinolin-6-yl)(1-methyl-1H-imidazol-5-yl)(6-(trifluoromethyl)pyridin-3-yl)methanol]
0.011	105		0.0016		0.011	Cn1cncc1C(O)(c1ccc(Cl)cc1)c1ccc2nc(C#N)c(Cc3ccc(-n4cccn4)cc3)c(C#N)c2c1 (single isomer, unassigned) [Example 71B, 3-(4-(1H-Pyrazol-1-yl)benzyl)-6-((4-chlorophenyl)(hydroxy)(1-methyl-1H-imidazol-5-yl)methyl)quinoline-2,4-dicarbonitrile]
0.26			0.13	103	0.3	Cn1cncc1C(O)(c1ccc(Cl)cc1)c1ccc2nc(C#N)c(Cc3ccc(-n4cccn4)cc3)c(C#N)c2c1 (single isomer, unassigned) [Example 71C, 3-(4-(1H-Pyrazol-1-yl)benzyl)-6-((4-chlorophenyl)(hydroxy)(1-methyl-1H-imidazol-5-yl)methyl)quinoline-2,4-dicarbonitrile]
